From patent US20050026950A1, “Methods of therapeutic treatment using retinoids to achieve consistent bioavailability” (Allergan, Inc., priority 2003, published 2005)

Legend:
Assay type in all cases: in vivo, human
severe nodulocystic acne = assay: Multicenter double-blind placebo-controlled study of oral tazarotene in severe nodulocystic acne; conditions: for patients withdrawing due to adverse events: treatment period
Source text: A multicenter, double-blind, randomized, placebo-controlled parallel-group study is undertaken to determine the efficacy of orally administered tazarotene in treating severe nodulocystic acne.
In addition, washout periods for other medications for this study are: 1 week for vitamin A supplements >5000 IU; 2 weeks for topical anti-acne medications (e.g., retinoids, azelaic acid, benzoyl peroxide); 2 weeks for topical or systemic antibiotic therapy that may alter the course of acne; and 6 months for systemic retinoids.
Patients are randomized to receive placebo or oral tazarotene (0.75, 1.5, 3, or 6 mg), in a 1:1:1:1:1 ratio once daily for 24 weeks. After this, the patients are followed without treatment for an additional 12 weeks. Patients discontinuing from the treatment period due to adverse effects or lack of efficacy are eligible for entry into the post-treatment phase.
In the study, overall acne severity is rated as: none (no inflammatory acne lesions); mild (few to several papules or pustules, no nodulocystic lesions); moderate (several to many papules or pustules, few to several nodulocystic lesions); and severe (numerous or extensive papules or pustules, many, for example, at least about 5 or at least about 10, nodulocystic lesions).
Treatment success is defined as at least moderate (about 50%) improvement on the following 7-point global response scale: • 0=completely cleared • 1=almost cleared (about 90% improvement) • 2=marked response (about 75% improvement) • 3=moderate response (about 50% improvement) • 4=slight response (about 25% improvement) • 5=condition unchanged • 6=condition worsened
In this study, facial nodulocystic lesion count includes lesions greater than 5 mm in size. Facial papular/pustular lesion count includes lesions less than or equal to 5 mm in size. Facial non-inflammatory lesion count includes open and closed comedones.
Sebum output is assessed every 4 weeks at selected centers using the Sebutape® patches, sold by Cuderm Corporation. Urinalysis, chemistry, and hematology values are monitored. Bone formation and resorption assessments (serum bone alkaline phosphatase and serum amino terminal telopeptides, respectively) at selected centers are monitored.
Bone mineral density of spine and proximal femur at selected centers is monitored. Ligament calcification or osteophyte formation (lateral X-ray of the cervical and thoracic spine, and ankle calcaneous) is monitored. Epiphyseal growth plate closure (internal oblique X-ray of the ankle in patients less than or equal to 21 years old) is monitored.

[1] = tested on: moderate to very severe plaque psoriasis; assay: Open-label extension study of oral tazarotene in plaque psoriasis non-responders
severe psoriasis = assay: Patient with severe psoriasis taking Ortho-Novum treated with tazarotene; conditions: 6 mg per day, after 30 days
Source text: The patient presents symptoms of severe psoriasis. The symptoms include lesions approximately 4 to 10 centimeters across appearing as raised patches of wine red skin many of which are covered in silvery white scales. The lesions are mostly dry and rough, and quite often noticeably warm to the touch. The lesions are present on the elbows, knees, scalp, and groin area. The patient experiences intense burning and itching associated with the lesions.
The patient is currently taking Ortho-Novum® for contraception.
Tazarotene at a dose of 6 mg per day is prescribed.

[2] = Two placebo-controlled 24-week safety studies of oral tazarotene plus 16- to 24-week dose-response evaluations
Protocol: Two multicenter, double-blind, randomized, placebo-controlled 24-week studies of identical design are conducted to evaluate the safety of oral tazarotene. In addition, 16- to 24-week dose-response evaluations are performed.
In the two safety trials, the incidence of adverse side effects with a 4.5 mg dose administered orally once daily is compared to the incidence of the same side effects with a placebo. […] The majority of these were mild in severity and typical of adverse effects associated with oral retinoids.

[3] = 0.75 to 6 mg once daily, 24 weeks
[4] = 4.5 mg once daily, 12-week extension
[5] = 4.5 mg once daily, 12-week extension, across both groups
[6] = 4.5 mg orally once daily, two safety trials

In the case of `CCOC(=O)c1ccc(C#Cc2ccc3c(c2)C(C)(C)CCS3)nc1` [tazarotene], the “patients withdrawing due to adverse events” value (from here on “patients withdrawing due”) (severe nodulocystic acne; 0.75 mg group (2/35)) is reported as 6%, the “patients withdrawing due” value (severe nodulocystic acne; 1.5 mg group (0/37)) is reported as 0% and the “incidence of treatment success vs placebo” value (severe nodulocystic acne; 3 mg and 6 mg, week 24 and post-treatment phase, p≦0.05) is reported as “significantly higher incidence of treatment success”. The “patients withdrawing due” value (severe nodulocystic acne; 3 mg group (2/37)) was 5%, the “patients withdrawing due” value (severe nodulocystic acne; 6 mg group (1/36)) was 3% and the “reduction of overall acne severity vs placebo” value (severe nodulocystic acne; 6 mg, week 16 until end of post-treatment phase, p≦0.01) was “significantly more than placebo”. For the same compound, the “bone formation and resorption (serum bone alkaline phosphatase, amino terminal telopeptides)” value (severe nodulocystic acne; [3]) was “do not appear to be altered”, the “changes in urinalysis, chemistry, or hematology measures (liver function, triglycerides, total and HDL cholesterol)” value (severe nodulocystic acne; [3]) was “None of the treatment groups show any consistent clinically significant changes” and the “ligament calcification, osteophyte formation, or changes in bone density” value (severe nodulocystic acne; [3]) was “None of the treatment groups show any clinically significant”. For the same compound, the “percentage of patients with at least a 90% reduction in facial nodulocystic lesion count vs placebo” value (severe nodulocystic acne; 1.5, 3, and 6 mg groups, week 24) was “significantly greater”, the “sebum secretion (Sebutape method)” value (severe nodulocystic acne; oral, 0.75 to 6 mg, vs placebo) was “does not substantially reduce sebum secretion relative to placebo” and the “patients achieving treatment success (≧50% global improvement)” value (severe nodulocystic acne; three highest doses, by week 12) was “more than 70%”. The “patients achieving treatment success (≧50% global improvement)” value (severe nodulocystic acne; two highest doses, by week 24) was “more than 86%”, the “changes in liver function test values or cholesterol levels” value [1, 4] was “no clinically significant changes” and the “serious adverse events related to study treatment” value [1, 4] was “no serious adverse events considered related to the study treatment”. The incidence of arthralgia [1, 5] was 20%, the incidence of asthenia [1, 5] was 6% and the “incidence of back pain” value [1, 5] was 11%. The incidence of cheilitis [1, 5] was 70%, the “incidence of dry skin” value [1, 5] was 25% and the incidence of headache [1, 5] was 11%. It also gave an incidence of hypertriglyceridemia [1, 5] of 6%, an incidence of infection [1, 5] of 10% and an incidence of myalgia [1, 5] of 15%. For the same compound, the “Clinical success (a 2-grade reduction in OLA), patients” value ([1]; end of the 12-week post-treatment period) was 16%, the “psoriasis symptoms and lesions” value (severe psoriasis) was “symptoms of itching and burning are relieved and the severity of their lesions are substantially lessened” and the incidence of agitation ([2]; 4.5 mg orally once daily) was < 1%. The “incidence of altered hormone levels (TSH, T4, thyroid function test)” value ([2]; 4.5 mg orally once daily) was 0%, the incidence of anxiety ([2]; 4.5 mg orally once daily) was 1% and the incidence of depression ([2]; 4.5 mg orally once daily) was 1%. For the same compound, the “incidence of emotional lability” value ([2]; 4.5 mg orally once daily) was 3%, the incidence of psychosis ([2]; 4.5 mg orally once daily) was 0% and the “incidence of psychotic depression” value ([2]; 4.5 mg orally once daily) was 0%. The “incidence of hypertriglyceridemia, hypercholesterolemia, abnormal liver function tests, increased ALT/AST, desquamation, eye dryness, alopecia” value ([2]; 4.5 mg orally once daily vs placebo) was “essentially the same incidence with oral tazarotene as with placebo”, the incidence of arthralgia [2, 6] was 17% and the “incidence of back pain” value [2, 6] was 7%. The incidence of cheilitis [2, 6] was 66%, the incidence of dermatitis [2, 6] was 1% and the “incidence of dry skin” value [2, 6] was 24%. For the same compound, the “incidence of foot pain” value [2, 6] was 3%, the incidence of headache [2, 6] was 19% and the incidence of hyperglycemia [2, 6] was 2%. The “incidence of joint disorder” value [2, 6] was 4%, the incidence of myalgia [2, 6] was 14% and the “incidence of nasal dryness” value [2, 6] was 4%. The incidence of rash [2, 6] was 3%, the “incidence of patients discontinuing due to adverse effects” value ([2]; 0.4 to 1.1 mg oral (n=105)) was “approximately 2%” and the “incidence of patients discontinuing due to adverse effects” value ([2]; 2.1 to 2.8 mg oral (n=21)) was 10%.
